Results published in patent publication US20240033234A1, “THERAPEUTIC COMPOUNDS, FORMULATIONS, AND USE THEREOF” (Tvardi Therapeutics, Inc., priority 2022, published 2024).
Where “and” joins values, the source holds several entries; their conditions need not be identical. Identical values can stand only once.

Test: Accelerated and long term stability study of TTI-101 (Batch A, Batch B): HPLC assay, purity, impurities and water content after storage at 5° C., 25° C./60% RH, 30° C./65% RH or 40° C./75% RH
Format: physicochemical
Details: for Impurities RRT 1.06: RRT of Compound 4; for Impurities RRT 0.99: RRT of compound of formula (IV)
Procedure: Exemplary HPLC conditions: diluent was 0.1% trifluoroacetic acid (TFA) in acetonitrile, Mobile Phase A was 0.05% TFA in water, and Mobile Phase B was 0.05% TFA in acetonitrile, column (Agilent, Eclipse XDB-C18, 3.0×100 mm, particle size 1.8 μm), flow (0.425 mL/min), and detector (280 nm diode array).
Batch A was prepared analogously using Method 3 as described in Example 1. Batch B was prepared according to Method 5 as described in Example 1.
Samples of TTI-101 were stored at 5° C., 25° C./60% RH, 30° C./65% RH, or 40° C./75% RH. TTI-101 was stored in an LDPE bag enclosed with a Nylon cable tie and then transferred to another LDPE bag and enclosed with a Nylon cable tie. The enclosure was put into an HDPE bottle and closed with a polyethylene-lined polypropylene cap. The samples were stored under the above-identified conditions.
The samples were analyzed using HPLC with the exemplary conditions identified above. Relative retention time (RRT) for Compound 5 was about 0.83, Compound 4 was about 1.05-1.06, Compound 6 was about 1.15-1.17, and compound of formula (IV) was about 0.99.
• NA not applicable • NQ ≥0.02% and <0.05% • Avg average • Cmpd compound • — no peak • M month • RRT relative retention time

[1] = 25° C./60% RH, 6 M, P1/P2, listed as Batch A
[2] = 25° C./60% RH, 9 M, P1/P2, listed as Batch A
[3] = 25° C./60% RH, 12 M, P1/P2, listed as Batch A
[4] = 40° C./75% RH, 0 M, P1/P2, listed as Batch A
[5] = 40° C./75% RH, 2 M, P1/P2, listed as Batch A
[6] = 40° C./75% RH, 6 M, P1/P2, listed as Batch A

COc1ccc(S(=O)(=O)Nc2cc(-c3c(O)ccc4ccccc34)c(O)c3ccccc23)cc1 [TTI-101]
Purity (%) (25° C./60% RH, 3 M, P1/P2): 99.7%
Water Content (%) (25° C./60% RH, 3 M, P1/P2): <0.04%
Assay (%) (25° C./60% RH, 3 M, P1/P2, listed as Batch A): 99.0% and 100.0%
Assay (%) (25° C./60% RH, 6 M, Avg): 98.2%
Impurities RRT 1.15 (Cmpd 6) (25° C./60% RH, 6 M, Avg): 0.11 area %
Impurities Total (25° C./60% RH, 6 M, Avg): 0.1 area %
Purity (%) (25° C./60% RH, 6 M, Avg): 99.9%
Water Content (%) (25° C./60% RH, 6 M, Avg): <0.04%
Impurities Total (25° C./60% RH, 6 M, P1/P2): 0.1 area %
Purity (%) (25° C./60% RH, 6 M, P1/P2): 99.9%
Water Content (%) (25° C./60% RH, 6 M, P1/P2): <0.04%
Assay (%) [1]: 97.0% and 99.5%
Impurities RRT 1.15 (Cmpd 6) [1]: 0.11 area % and 0.12 area %
Assay (%) (25° C./60% RH, 9 M, Avg): 98.4%
Impurities RRT 1.16 (Cmpd 6) (25° C./60% RH, 9 M, Avg): 0.10 area %
Impurities Total (25° C./60% RH, 9 M, Avg): 0.1 area %
Purity (%) (25° C./60% RH, 9 M, Avg): 99.9%
Water Content (%) (25° C./60% RH, 9 M, Avg): <0.04%
Impurities Total (25° C./60% RH, 9 M, P1/P2): 0.1 area %
Purity (%) (25° C./60% RH, 9 M, P1/P2): 99.9%
Water Content (%) (25° C./60% RH, 9 M, P1/P2): <0.04%
Assay (%) [2]: 99.7% and 97.0%
Impurities RRT 1.16 (Cmpd 6) [2]: 0.11 area % and 0.10 area %
Assay (%) (25° C./60% RH, 12 M, Avg): 98.5%
Impurities RRT 1.06 (Cmpd 4) (25° C./60% RH, 12 M, Avg): NQ (≥0.02% and <0.05%)
Impurities RRT 1.16 (Cmpd 6) (25° C./60% RH, 12 M, Avg): 0.39 area %
Impurities RRT 1.52 (25° C./60% RH, 12 M, Avg): NQ (≥0.02% and <0.05%)
Impurities Total (25° C./60% RH, 12 M, Avg): 0.4 area %
Purity (%) (25° C./60% RH, 12 M, Avg): 99.6%
Water Content (%) (25° C./60% RH, 12 M, Avg): 0.04%
Impurities RRT 1.06 (Cmpd 4) (25° C./60% RH, 12 M, P1/P2): NQ (≥0.02% and <0.05%)
Impurities RRT 1.16 (Cmpd 6) (25° C./60% RH, 12 M, P1/P2): 0.39 area %
Impurities Total (25° C./60% RH, 12 M, P1/P2): 0.4 area %
Purity (%) (25° C./60% RH, 12 M, P1/P2): 99.6%
Assay (%) [3]: 98.3% and 98.6%
Water Content (%) [3]: <0.04% and 0.04%
Assay (%) (25° C./60% RH, 18 M, Avg): 98.2%
Impurities RRT 1.15 (Cmpd 6) (25° C./60% RH, 18 M, Avg): 0.10 area %
Impurities Total (25° C./60% RH, 18 M, Avg): 0.1 area %
Purity (%) (25° C./60% RH, 18 M, Avg): 99.9%
Water Content (%) (25° C./60% RH, 18 M, Avg): <0.04%
Impurities RRT 1.15 (Cmpd 6) (25° C./60% RH, 18 M, P1/P2): 0.10 area %
Impurities Total (25° C./60% RH, 18 M, P1/P2): 0.1 area %
Purity (%) (25° C./60% RH, 18 M, P1/P2): 99.9%
Water Content (%) (25° C./60% RH, 18 M, P1/P2): <0.04%
Impurities RRT 1.06 (25° C./60% RH, 18 M, P1/P2): NQ (≥0.02% and <0.05%)
Assay (%) (25° C./60% RH, 18 M, P1/P2, listed as Batch A): 98.3% and 98.2%
Assay (%) (25° C./60% RH, 24 M, Avg): 99.3%
Impurities RRT 1.16 (Cmpd 6) (25° C./60% RH, 24 M, Avg): 0.12 area %
Impurities Total (25° C./60% RH, 24 M, Avg): 0.1 area %
Purity (%) (25° C./60% RH, 24 M, Avg): 99.9%
Water Content (%) (25° C./60% RH, 24 M, Avg): <0.04%
Impurities RRT 1.16 (Cmpd 6) (25° C./60% RH, 24 M, P1/P2): 0.12 area %
Impurities Total (25° C./60% RH, 24 M, P1/P2): 0.1 area %
Purity (%) (25° C./60% RH, 24 M, P1/P2): 99.9%
Water Content (%) (25° C./60% RH, 24 M, P1/P2): <0.04%
Impurities RRT 1.06 (25° C./60% RH, 24 M, P1/P2): NQ (≥0.02% and <0.05%)
Assay (%) (25° C./60% RH, 24 M, P1/P2, listed as Batch A): 99.1% and 99.6%
Assay (%) (40° C./75% RH, 0 M, Avg): 99.8%
Impurities RRT 1.06 (Cmpd 4) (40° C./75% RH, 0 M, Avg): NQ (≥0.02% and <0.05%)
Impurities RRT 1.17 (Cmpd 6) (40° C./75% RH, 0 M, Avg): 0.13 area %
Impurities RRT 1.32 (40° C./75% RH, 0 M, Avg): NQ (≥0.02% and <0.05%)
Impurities Total (40° C./75% RH, 0 M, Avg): 0.1 area %
Purity (%) (40° C./75% RH, 0 M, Avg): 99.8%
Water Content (%) (40° C./75% RH, 0 M, Avg): <0.04%
Impurities RRT 0.99 (40° C./75% RH, 0 M, Avg): NQ (≥0.02% and <0.05%)
Impurities RRT 1.32 (40° C./75% RH, 0 M, P1/P2): NQ (≥0.02% and <0.05%)
Impurities Total (40° C./75% RH, 0 M, P1/P2): 0.1 area %
Purity (%) (40° C./75% RH, 0 M, P1/P2): 99.8%
Water Content (%) (40° C./75% RH, 0 M, P1/P2): <0.04%
Assay (%) [4]: 99.9% and 99.7%
Impurities RRT 1.17 (Cmpd 6) [4]: 0.13 area % and 0.12 area %
Assay (%) (40° C./75% RH, 2 M, Avg): 99.9%
Impurities RRT 1.16 (Cmpd 6) (40° C./75% RH, 2 M, Avg): 0.07 area %
Impurities RRT 1.29 (40° C./75% RH, 2 M, Avg): NQ (≥0.02% and <0.05%)
Impurities RRT 1.38 (40° C./75% RH, 2 M, Avg): NQ (≥0.02% and <0.05%)
Impurities Total (40° C./75% RH, 2 M, Avg): 0.1 area %
Purity (%) (40° C./75% RH, 2 M, Avg): 99.9%
Water Content (%) (40° C./75% RH, 2 M, Avg): <0.04%
Impurities RRT 0.99 (40° C./75% RH, 2 M, Avg): NQ (≥0.02% and <0.05%)
Impurities RRT 1.38 (40° C./75% RH, 2 M, P1/P2): NQ (≥0.02% and <0.05%)
Impurities Total (40° C./75% RH, 2 M, P1/P2): 0.1 area %
Purity (%) (40° C./75% RH, 2 M, P1/P2): 99.9%
Water Content (%) (40° C./75% RH, 2 M, P1/P2): <0.04%
Impurities RRT 0.99 (40° C./75% RH, 2 M, P1/P2): NQ (≥0.02% and <0.05%)
Assay (%) [5]: 100.0% and 99.8%
Impurities RRT 1.16 (Cmpd 6) [5]: 0.08 area % and 0.06 area %
Assay (%) (40° C./75% RH, 3 M, Avg): 99.0%
Impurities RRT 0.36 (40° C./75% RH, 3 M, Avg): NQ (≥0.02% and <0.05%)
Impurities RRT 1.06 (Cmpd 4) (40° C./75% RH, 3 M, Avg): 0.07 area %
Impurities RRT 1.16 (Cmpd 6) (40° C./75% RH, 3 M, Avg): 0.21 area %
Impurities Total (40° C./75% RH, 3 M, Avg): 0.3 area %
Purity (%) (40° C./75% RH, 3 M, Avg): 99.7%
Water Content (%) (40° C./75% RH, 3 M, Avg): <0.04%
Impurities RRT 1.06 (Cmpd 4) (40° C./75% RH, 3 M, P1/P2): 0.07 area %
Impurities RRT 1.16 (Cmpd 6) (40° C./75% RH, 3 M, P1/P2): 0.21 area %
Impurities Total (40° C./75% RH, 3 M, P1/P2): 0.3 area %
Purity (%) (40° C./75% RH, 3 M, P1/P2): 99.7%
Water Content (%) (40° C./75% RH, 3 M, P1/P2): <0.04%
Assay (%) (40° C./75% RH, 3 M, P1/P2, listed as Batch A): 100.8% and 97.2%
Impurities RRT 1.15 (Cmpd 6) (40° C./75% RH, 6 M, Avg): 0.13 area %
Impurities Total (40° C./75% RH, 6 M, Avg): 0.1 area %
Purity (%) (40° C./75% RH, 6 M, Avg): 99.9%
Water Content (%) (40° C./75% RH, 6 M, Avg): <0.04%
Impurities Total (40° C./75% RH, 6 M, P1/P2): 0.1 area %
Purity (%) (40° C./75% RH, 6 M, P1/P2): 99.9%
Water Content (%) (40° C./75% RH, 6 M, P1/P2): <0.04%
Assay (%) [6]: 98.5% and 95.9%
Impurities RRT 1.15 (Cmpd 6) [6]: 0.13 area % and 0.12 area %
Assay (%) (40° C./75% RH, 8 M, Avg): 100.3%
Impurities RRT 1.16 (Cmpd 6) (40° C./75% RH, 8 M, Avg): 0.08 area %
Impurities Total (40° C./75% RH, 8 M, Avg): 0.1 area %
Purity (%) (40° C./75% RH, 8 M, Avg): 99.9%
Water Content (%) (40° C./75% RH, 8 M, Avg): 0.04%
Impurities Total (40° C./75% RH, 8 M, P1-P6): 0.1 area %
Purity (%) (40° C./75% RH, 8 M, P1-P6): 99.9%
Assay (%) (40° C./75% RH, 8 M, P1-P6, listed as Batch A): 100.0% and 99.8% and 100.3% and 100.6% and 99.9% and 100.8%
Impurities Total (Storage 5° C., 0 M, Avg): 0.1 area %
Impurity RRT 0.61 (Storage 5° C., 0 M, Avg): 0.05 area %
Impurity RRT 0.86 (Storage 5° C., 0 M, Avg): NQ (≥0.02% and <0.05%)
Impurity RRT 0.88 (Storage 5° C., 0 M, Avg): NQ (≥0.02% and <0.05%)
Impurity RRT 0.99 (Storage 5° C., 0 M, Avg): NQ (≥0.02% and <0.05%)
Impurity RRT 1.16 (Cmp 6) (Storage 5° C., 0 M, Avg): 0.07 area %
Purity (Storage 5° C., 0 M, Avg): 99.8%
